Each structure is given as a SMILES string.

The test system of the assay is Coptotermes formosanus Shiraki. The assay is described as follows: Test Example 1: termite-killing test on treated filter paper. It is filed as in vivo. The settings on record: mortality class; 1 ml of a 500 ppm solution on filter paper, seven days after inoculation, triplicate group of 10 insects. How it is done:
A filter paper was spread in a glass dish having a diameter of 9 cm, onto which was dropped 1 ml of a 500 ppm solution of the ant controller of the present invention. Then, the filter paper was inoculated with Coptotermes formosanus Shiraki. Seven days after the inoculation, percentage of dead insects was investigated, from which mortality was calculated. The test was carried out with triplicate group of 10 insects.
Take `N#Cc1ccc(CC(=NNC(=O)Nc2ccc(SC(F)(F)F)cc2)c2cccc(Cl)c2)cc1` [Compound 21]: the Termite-killing effect result was “A (100)”.

With `O=C(C=NN(Cc1ccccc1)c1ccccc1)Nc1ccc(OC(F)(F)F)cc1` [Compound 122], the Termite-killing effect result is “D (79-50)”. As for `N#Cc1ccc(CC(NNC(=O)Nc2ccc(S(=O)(=O)C(F)(F)F)cc2)c2cccc(Cl)c2)cc1` (centres unmarked) [Compound 94], the entry is “A (100)”; as for `O=C(NN=C(Cc1ccccc1)c1cccc(C(F)(F)F)c1)Nc1ccc(Cl)cc1` [Compound 42], “A (100)”; as for `N#Cc1ccc(CN(N=CC(=O)Nc2ccc(Cl)cc2)c2ccccc2)cc1` [Compound 124], “D (79-50)”. `N#Cc1ccc(CN(N=CC(=O)Nc2ccc(Cl)cc2)c2cccc(Cl)c2)cc1` [Compound 130]: the Termite-killing effect result is listed as “C (89-80)”. As for `N#Cc1ccc(CN(NCC(=O)Nc2ccc(OC(F)(F)F)cc2)c2ccccc2)cc1` [Compound 146], the Termite-killing effect entry is on record as “D (79-50)”. For the molecule `O=C(CNN(Cc1ccc([N+](=O)[O-])cc1)c1cccc(Cl)c1)Nc1ccc(Cl)cc1` [Compound 149], the Termite-killing effect result was “A (100)”. For `O=C(NN=C(c1ccccc1)C(O)c1ccccc1)Nc1ccc(Cl)cc1` (centres unmarked) [Compound 57], the Termite-killing effect result is “D (79-50)”. With `CC(C(=NNC(=O)Nc1ccc(Cl)cc1)c1ccccc1)c1ccccc1` (centres unmarked) [Compound 48] the entry was “A (100)”; with `O=C(CNN(Cc1ccc(Cl)cc1)c1ccccc1)Nc1ccc(OC(F)(F)F)cc1` [Compound 144], “B (99-90)”; with `N#Cc1ccc(CN(N=CC(=O)Nc2ccc(OC(F)(F)F)cc2)c2cccc(C(F)(F)F)c2)cc1` [Compound 139], “A (100)”. For `N#Cc1ccc(C(O)C(=NNC(=O)Nc2ccc(Cl)cc2)c2ccccc2)cc1` (racemic) [Compound 62], the Termite-killing effect result is listed as “A (100)”.

As to `CN(C(=O)NN=C(Cc1ccccc1)c1ccccc1)c1ccc(Cl)cc1` [Compound 46], the Termite-killing effect entry is on record as “A (100)”. For `CC(C)COC(C(=NNC(=O)Nc1ccc(Cl)cc1)c1ccccc1)c1ccccc1` (racemic) [Compound 70], the Termite-killing effect entry was “A (100)”.

`N#Cc1cccc(CC(NNC(=O)Nc2ccc(OC(F)(F)F)cc2)c2ccccc2)c1` (centres unmarked) [Compound 121]: the Termite-killing effect result was “C (89-80)”.

Consider `N#Cc1ccc(CC(=NNC(=S)Nc2ccc(OC(F)(F)F)cc2)c2cccc(C(F)(F)F)c2)cc1` [Compound 45], for which the Termite-killing effect entry was “A (100)”. With `CC(C(=NNC(=S)Nc1ccc(OC(F)(F)F)cc1)c1ccccc1)c1ccccc1` (racemic) [Compound 65], the Termite-killing effect entry was “C (89-80)”. On to `O=C(NN=C(c1ccccc1)C(O)c1ccc(Cl)cc1)Nc1ccc(OC(F)(F)F)cc1` (racemic) [Compound 61], for which the Termite-killing effect entry is “A (100)”. As for `N#Cc1ccc(CC(=NNC(=O)Nc2ccc(S(=O)(=O)C(F)(F)F)cc2)c2ccc(F)cc2)cc1` [Compound 78], the entry is “A (100)”; as for `O=C(NN=C(Cc1ccccc1)c1cccc(Cl)c1)Nc1ccc(OC(F)(F)F)cc1` [Compound 15], “B (99-90)”; as for `CN(N=C(c1ccccc1)C(O)c1ccccc1)C(=O)Nc1ccc(OC(F)(F)F)cc1` (racemic) [Compound 75], “A (100)”. On to `N#Cc1ccc(CC(=NNC(=S)Nc2ccc(Cl)cc2)c2ccccc2)cc1` [Compound 6], for which the Termite-killing effect entry is reported as “A (100)”.

As for `O=C(NN=C(Cc1ccc(Cl)cc1)c1cccc(Cl)c1)Nc1ccc(OC(F)(F)F)cc1` [Compound 16], the Termite-killing effect result is reported as “C (89-80)”. As for `N#Cc1ccc(CC(=NNC(=S)Nc2ccc(OC(F)(F)F)cc2)c2cccc(Cl)c2)cc1` [Compound 20], the entry is “A (100)”; as for `N#Cc1ccc(CC(NNC(=O)Nc2ccc(S(=O)(=O)C(F)(F)F)cc2)c2cccc(C(F)(F)F)c2)cc1` (centres unmarked) [Compound 120], “A (100)”.

These data come from patent publication US8361487B1, “Ant controllers and method for application thereof” (BASF Aktiengesellschaft, priority 1999, dated 2013).
